Reference: article PMC10397409, “The action of physiological and synthetic steroids on the calcium channel CatSper in human sperm” (Frontiers in Cell and Developmental Biology, 2023)
Like-named read-outs stand apart in the source and are kept apart here.

Assays:
Format in all cases: cell-based
CatSper [1] = molecular target: T1, CatSper (Homo sapiens, UniProt Q7RTX7+Q86XQ3+Q8NEC5+Q96P56); experiment: Inhibition of PGE1-induced Ca2+ influx in human sperm (screen 2 inhibitors)
T1 construct: Motile spermatozoa were selected by a ‘swim-up’ procedure; endogenous in cells; host or cells: motile human spermatozoa (swim-up) from healthy donors
Procedure: (§1) Briefly, motile spermatozoa were selected by swim-up and labeled with the fluorescent calcium indicator Fluo-4 a.m. to image changes in [Ca^2+]i. After centrifugation to remove excess dye, Fluo-4 AM loaded cells were distributed in a 384-wells plate to obtain ∼125,000 cells/well. After measuring basal fluorescence, a first injection of compounds was performed in order to evaluate their effect on [Ca^2+]i alone. This first screen is therefore considered as a screen to search for ‘activators’. Fluorescence was recorded for 12 min during which sperm cells were continuously exposed to compounds. P4 or PGE1 were then added in the same wells to evaluate whether the tested compounds can reduce the ligand-induced activation of CatSper. This second screen was therefore considered to be a search for CatSper ‘inhibitors’.
(§2) Human semen samples were collected from healthy donors by masturbation after a recommended sexual abstinence period of minimum 2 days. Semen samples were allowed to liquefy at 37°C for 15–30 min. Motile spermatozoa were selected by a ‘swim-up’ procedure as previously described ([Strünker et al., 2011]). Briefly, 1 mL of semen was deposited in a 45°-inclined 50 mL Falcon tube with 4 mL of Human Tubular Fluid (HTF) medium containing: 93.8 mM NaCl, 4.7 mM KCl, 0.2 mM MgSO4, 0.37 mM KH2PO4, 2.04 mM CaCl2, 20.98 mM HEPES, 2.78 mM glucose, 21.4 mM Na-lactate, 4 mM NaHCO3, 0.33 mM Na-pyruvate, and the pH was adjusted to 7.35. Motile sperm were allowed to swim at 37°C for 1 hour. The supernatant was collected in 15 mL Falcon tubes and washed twice by centrifugation at 700 x g for 20 min. Sperm were supplemented with 3 mg/mL HSA. Written informed consent was obtained from all donors prior to donation and approved by the Cantonal Ethics Committee of the State of Geneva (CCER #14-147).
(§3) Cells were loaded with the fluorescent Ca^2+ indicator Fluo-4 AM at a final concentration of 2.5 µM for 30 min at 37°C. Excess dye was washed via centrifugation at 700 x g for 20 min and sperm were resuspended in HTF medium to obtain a final concentration of 6.25 x 10^6 cells/mL. 20 μL of cells (corresponding to ∼125,000 cells) loaded with Fluo-4 a.m. were dispensed in a 384-wells plate (Corning, NY, United States) to allow fluorescence measurement. The dye was excited at 480 nm, and emission was recorded at 530 nm. The change in [Ca^2+]i was assessed simultaneously in all wells using a Functional Drug Screening System (FDSS/μCELL) (Hamamatsu Phototonics K.K., Yokohama, Japan) at 37°C. Basal fluorescence was first measured for 30 s. […] P4 and PGE1 were tested at a near-saturating concentration in the HTS in order to evaluate a potential additive or synergistic effect induced by the compounds. Non-specific CatSper inhibitor MDL 12330A was used as a negative control at final concentration of 20 µM while DMSO was used as a vehicle control. For alkalization-induced Ca^2+ measurement, NH4Cl was used as a positive control at a final concentration of 10 mM. Fluorescence was recorded for a total of 16.5 min: 30 s before injection, 12 min after the first injection of the tested compounds, and 4 min after the second injection of either P4 or PGE1. The Prestwick library was tested in technical duplicate. Ca^2+ response curves were normalized using the following formula F−F0/F0×100 , where F 0 is the average of the basal fluorescence prior to the addition of the compound of interest and F corresponds to the fluorescence value at each time point. The ∆F/F0 of the vehicle control (DMSO) was subtracted from all the other values to adjust for dilution and pipetting artifacts. The values of all compounds were normalized to their respective controls.

CatSper [2] = molecular target: T1, CatSper; experiment: Inhibition of P4-induced Ca2+ influx in human sperm (screen 2 inhibitors); conditions: for Max P4 inhibition (%) (± SD): 3 independent experiments
Procedure: as §1, §2, §3

CatSper [3] = molecular target: T1, CatSper; experiment: Steroid-induced increase in [Ca2+]i in human sperm (Fluo-4 HTS assay, screen 1 activators); conditions: for Emax: read-out: Max amplitude (%) (± SD)
Procedure: as §1
Human semen samples were collected from healthy donors by masturbation after a recommended sexual abstinence period of minimum 2 days. Semen samples were allowed to liquefy at 37°C for 15–30 min. […] Motile sperm were allowed to swim at 37°C for 1 hour. The supernatant was collected in 15 mL Falcon tubes and washed twice by centrifugation at 700 x g for 20 min. Sperm were supplemented with 3 mg/mL HSA.
as §3, with “20” for “Cells were loaded with the fluorescent Ca^2+ indicator Fluo-4 AM at a final concentration of 2.5 µM for 30 min at 37°C. Excess dye was washed via centrifugation at 700 x g for 20 min and sperm were resuspended in HTF medium to obtain a final concentration of 6.25 x 10^6 cells/mL. 20”, “Non-specific CatSper inhibitor MDL 12330A was used as a negative control at final concentration of 20 µM while DMSO was used as a vehicle control.” left out, “Fluorescence was recorded for a total of 16.5 min: 30 s before injection, 12 min after the first injection of the tested compounds, and 4 min after the second injection of either P4 or PGE1.” left out
Data are shown as mean ± standard deviation (SD) with “n” referring to the number of independent experiments performed using sperm samples from ≥3 different donors. Statistical analysis and fitting of dose-response relations were performed using GraphPad Prism 8.1.1 (Prism, La Jolla, United States). To generate sigmoidal curves, the concentrations were converted to their respective log values, and the data were normalized using the following formula: 100⋅x/Fmax , where Fmax is the maximum value of the positive control. A four-parameter Hill equation with a variable Hill coefficient was fitted to generate the EC02, EC50, and IC50. Statistical significance between control and treated conditions was evaluated using a one-way analysis of variance (ANOVA), followed by Dunnett´s test. A p-value <0.05 was considered significant.

[4] = PGE1-induced response, pooled from 3 independent experiments, read-out: Mean IC50 (PGE1) µM (±SD)
[5] = P4-induced response, pooled from 3 independent experiments, read-out: Mean IC50 (P4) µM (±SD)
[6] = maximal amplitude of steroid-induced [Ca2+]i increase, relative to P4, 3 independent experiments
[7] = pooled from 3 independent experiments, read-out: Mean EC50 µM (±SD)
[8] = Mean IC50 (P4) µM (±SD), P4-induced response, pooled from 3 independent experiments
[9] = EC50 (±SD), increase in [Ca2+]i, dose-response 90 µM to 0.3 nM
[10] = Mean EC50 µM (±SD), pooled from 3 independent experiments

SMILES | IC50 (CatSper [1]; [4]) | Max P4 inhibition (%) (± SD) (CatSper [2]) | IC50 (CatSper [2]; [5]) | Emax (CatSper [3]; [6]) | EC50 (CatSper [3]; [7]) | IC50 (CatSper [2]; [8]) | EC50 (CatSper [3]; [10]) | Emax (CatSper [3]) | also measured
C#C[C@]1(O)CC[C@H]2[C@@H]3CCC4=CCCC[C@@H]4[C@H]3CC[C@@]21C [lynestrenol] | 11.7 µM | 47 (±27) % | 9.36 µM | 59% | 17.3 µM | – | – | – | –
CC(=O)[C@H]1CC[C@H]2[C@@H]3C=CC4=CC(=O)CC[C@@]4(C)[C@@H]3CC[C@]12C [Dydrogesterone] | – | 94 (±4) % | – | 84% | – | 0.24 µM | 0.104 µM | – | IC50 (CatSper [1]): 44.8 µM; IC50 (CatSper [2]; IC50 (±SD), inhibition of P4-induced Ca2+ response, dose-response 90 µM to 0.3 nM): 0.245 µM; EC02 compared with reported maximum concentration in blood serum (CatSper [3]): EC02 below the reported maximum concentration found in blood serum; effective concentrations as low as (dose-dependent increase in [Ca2+]i) (CatSper [3]): 10 nM; EC50 (CatSper [3]; [9]): 0.13 µM
CC(=O)O[C@]1(C(C)=O)CC[C@H]2[C@@H]3C=C(C)C4=CC(=O)CC[C@@H]4[C@H]3CC[C@@]21C [nomegestrol acetate] | 52 µM | 12 (±17) % | 41.2 µM | 19% | 22.7 µM | – | – | – | –
C[C@H](CCC(=O)O)[C@H]1CC[C@H]2[C@@H]3[C@@H](O)C[C@@H]4C[C@H](O)CC[C@]4(C)[C@H]3CC[C@]12C [urosiol] | 12.2 µM | 13 (±3) % | – | – | 7.89 µM | – | – | – | Max amplitude (%) (± SD) (CatSper [3]; [6]): 25 (±8) %
C[C@]12CCC(=O)C=C1C=C[C@@H]1[C@@H]2CC[C@@]2(C)[C@H]1CC[C@@]2(O)CCC(=O)[O-].[K+] [canrenoic acid potassium salt] | 16.3 µM | 27 (±10) % | 23.2 µM | – | 23.4 µM | – | – | – | Max amplitude (%) (± SD) (CatSper [3]; [6]): 34 (±2) %
CC(=O)O[C@H]1CC[C@@]2(C)C(=CC[C@@H]3[C@@H]2CC[C@]2(C)C(=O)CC[C@@H]32)C1 [Dehydroisoandosterone 3-acetate (DHEA), Dehydroisoandosterone 3-acetate] | – | 82 (±6) % | – | – | – | 1.69 µM | 0.584 µM | 77% | IC50 (CatSper [1]): 3.7 µM; EC02 compared with reported maximum concentration in blood serum (CatSper [3]): EC02 below the reported maximum concentration found in blood serum; EC50 (CatSper [3]; [9]): 0.593 µM
C[C@]12CC[C@@H](O)C[C@@H]1CC[C@@H]1[C@@H]2CC[C@]2(C)C(=O)CC[C@@H]12 [androsterone] | – | 61 (±6) % | – | – | – | 2.11 µM | 1.02 µM | 70% | IC50 (CatSper [1]): 5.38 µM
C[C@]12CC[C@@H]3c4ccc(O)cc4CC[C@H]3[C@@H]1CC[C@@H]2O [estradiol-17 beta] | – | 67 (±3) % | 1.45 µM | – | 0.761 µM | – | – | – | Max amplitude (%) (± SD) (CatSper [3]; [6]): 75 (±8) %
C[C@]12CC[C@H]3[C@@H](CCC4=CC(=O)CC[C@@]43C)[C@@H]1CC[C@@H]2O [Testosterone] | – | 81 (±6) % | – | – | – | 1.09 µM | – | 87% | EC50 (CatSper [3]; [9]): 0.407 µM
CC(=O)[C@@]1(O)CC[C@H]2[C@@H]3C[C@H](C)C4=CC(=O)C=C[C@]4(C)[C@@]3(F)[C@@H](O)C[C@@]21C [fluorometholone] | – | 29 (±12) % | 6.51 µM | 42% | 0.702 µM | – | – | – | –
CC(=O)[C@H]1CC[C@H]2[C@@H]3C[C@H](C)C4=CC(=O)CC[C@]4(C)[C@H]3[C@@H](O)C[C@]12C [Medrysone] | – | 83 (±4) % | 0.471 µM | 104% | 0.23 µM | – | – | – | IC50 (CatSper [2]; inhibition of P4-induced Ca2+ response, dose-response 90 µM to 0.3 nM, read-out: IC50 (±SD)): 0.569 µM; EC50 (CatSper [3]; increase in [Ca2+]i, dose-response 90 µM to 0.3 nM, read-out: EC50 (±SD)): 0.24 µM
C[C@]12C[C@H](O)[C@H]3[C@@H](CCC4=CC(=O)CC[C@@]43C)[C@@H]1CC[C@@H]2C(=O)CO [corticosterone] | – | 49 (±5) % | 6.1 µM | 55% | 2.94 µM | – | – | – | –
C[C@]12CC[C@H]3[C@@H](CC[C@H]4C[C@H](O)CC[C@@H]43)[C@@H]1CCC2=O [S85] | – | 96 (±2) % | – | – | – | 0.495 µM | 0.259 µM | 99% | –
